Measurements taken from patent publication US20130281397A1, “TREATMENT OF DISEASES BY EPIGENETIC REGULATION” (RVX Therapeutics Inc., priority 2012, published 2013).
Structures can show the parent of a compound that is named as a salt.

Molecular target: T1, Brd4 bromodomain 1 (Homo sapiens, UniProt O60885)
T1 construct: made in house; host or cells: E. coli BL21(DE3)
Assay: Inhibition of binding of tetra-acetylated histone H4 and Brd4 bromodomain 1 by TR-FRET
Details: His-tagged bromodomain 200 nM, biotinylated tetra-acetylated histone H4 peptide 25-50 nM, 2 hours at room temperature
Procedure: Proteins were cloned and overexpressed with a N-terminal 6×His tag, then purified by nickel affinity followed by size exclusion chromatography. Briefly, E. coli BL21(DE3) cells were transformed with a recombinant expression vector encoding N-terminally […] tagged bromodomains from Brd2, Brd3, or Brd4. Cell cultures were incubated at 37° C. with shaking to the appropriate density and induced overnight with IPTG. The supernatant of lysed cells was loaded onto Ni-IDA column for purification. Eluted protein was pooled, concentrated and further purified by size exclusion chromatography. Fractions representing monomeric protein were pooled, concentrated, aliquoted, and frozen at −80° C. for use in subsequent experiments.
For inhibition assays, serially diluted test compound was added to these reactions in a 0.2% final concentration of DMSO. Final buffer concentrations were 30 mM HEPES pH 7.4, 30 mM NaCl, 0.3 mM CHAPS, 20 mM phosphate pH 7.0, 320 mM KF, 0.08% BSA). […] The binding inhibitory activity was shown by a decrease in 665 nm fluorescence relative to 620 nm. IC50 values were determined from a dose response curve.

Row | SMILES | FRET activity (<50 uM)
1 | N=C(N)NCCC[C@H](N)C(=O)Oc1ccc(-c2cc3ccccc3c(=O)[nH]2)cc1 (stereo in doubt) [Example 2, 4-(1-Oxo-1,2-dihydroisoquinolin-3-yl)phenyl 2-amino-5-guanidinopentanoate trihydrochloride] | Active
2 | COc1cc2cc(-c3cc(C)c(O)c(C)c3)n(C)c(=O)c2c(OC)c1CN1CCOCC1 [Example 14, 3-(4-hydroxy-3,5-dimethylphenyl)-6,8-dimethoxy-2-methyl-7-(morpholinomethyl)isoquinolin-1(2H)-one] | Inactive
3 | COc1cc(OC)c2c(=O)[nH]c(-c3cc(C)c(OCCN4CCOCC4)c(C)c3)cc2c1 [Example 15, 3-(3,5-dimethyl-4-(2-morpholinoethoxy)phenyl)-6,8-dimethoxyisoquinolin-1(2H)-one] | Active
4 | COc1cc(OC)c2c(=O)[nH]c(-c3cc(C)c(OCCN4CCN(C)CC4)c(C)c3)cc2c1 [Example 18, 3-(3,5-dimethyl-4-(2-(4-methylpiperazin-1-yl)ethoxy)phenyl)-6,8-dimethoxyisoquinolin-1(2H)-one] | Active
5 | COc1cc(OC)c2c(=O)[nH]c(-c3ccc(O)cc3)nc2c1 [Example 19, 2-(4-hydroxyphenyl)-5,7-dimethoxyquinazolin-4(3H)-one] | Active
6 | COc1cc(OC)c2c(=O)[nH]c(-c3ccc(OCC(=O)O)cc3)nc2c1 [Example 20, 2-(4-(5,7-dimethoxy-4-oxo-3,4-dihydroquinazolin-2-yl)phenoxy)acetic acid] | Active
7 | COc1cc(OC)c2c(=O)[nH]c(-c3ccncc3)nc2c1 [Example 28, 5,7-dimethoxy-2-(pyridin-4-yl)quinazolin-4(3H)-one] | Inactive
8 | COc1cc(OC)c2c(=O)[nH]c(-c3ccc(N4CCOCC4)cc3)nc2c1 [Example 44, 5,7-dimethoxy-2-(4-morpholinophenyl)quinazolin-4(3H)-one] | Active
9 | COc1cc(OC)c2c(=O)[nH]c(-c3ccc(CN4CCN(C)CC4)cc3)nc2c1 [Example 54, 5,7-dimethoxy-2-(4-((4-methylpiperazin-1-yl)methyl)phenyl)quinazolin-4(3H)-one] | Active
10 | COc1cc(OC)c2c(=O)[nH]c(-c3ccc(CN4CCOCC4)cc3)nc2c1 [Example 61, 5,7-dimethoxy-2-(4-(morpholinomethyl)phenyl)quinazolin-4(3H)-one] | Active
11 | CCN1CCN(Cc2ccc(-c3nc4cc(OC)cc(OC)c4c(=O)[nH]3)cc2)CC1 [Example 62, 2-(4-((4-ethylpiperazin-1-yl)methyl)phenyl)-5,7-dimethoxyquinazolin-4(3H)-one] | Active
12 | COc1cc(OC)c2c(=O)[nH]c(-c3ccccc3Cl)nc2c1 [Example 77, 2-(2-chlorophenyl)-5,7-dimethoxyquinazolin-4(3H)-one] | Inactive
13 | COc1cc(OC)c2c(=O)[nH]c(-c3cccc(-c4ccc(S(C)(=O)=O)cc4)n3)nc2c1 [Example 80, 5,7-dimethoxy-2-(6-(4-(methylsulfonyl)phenyl)pyridin-2-yl)quinazolin-4(3H)-one] | Active
14 | COc1cc(OC)c2c(=O)[nH]c(-c3cccc(C)n3)nc2c1 [Example 81, 5,7-dimethoxy-2-(6-methylpyridin-2-yl)quinazolin-4(3H)-one] | Active
15 | COc1cc(OC)c2c(=O)[nH]c(-c3cccc(-c4ccc(SC)cc4)n3)nc2c1 [Example 82, 5,7-dimethoxy-2-(6-(4-(methylthio)phenyl)pyridin-2-yl)quinazolin-4(3H)-one] | Inactive
16 | COc1cc(OC)c2c(=O)[nH]c(-c3cc(C)nc(Cl)c3)nc2c1 [Example 83, 2-(2-chloro-6-methylpyridin-4-yl)-5,7-dimethoxyquinazolin-4(3H)-one] | Inactive
17 | COc1cc(OC)c2c(=O)[nH]c(-c3cc(C)cc(C)c3)nc2c1 [Example 86, 2-(3,5-dimethylphenyl)-5,7-dimethoxyquinazolin-4(3H)-one] | Active
18 | COc1cc(OC)c2c(=O)[nH]c(-c3cc(C)c(/N=C/N(C)C)c(C)c3)nc2c1 [Example 87, (E)-N′-(4-(5,7-dimethoxy-4-oxo-3,4-dihydroquinazolin-2-yl)-2,6-dimethylphenyl)-N,N-dimethylformimidamide] | Active
19 | Cc1cc(-c2nc3ccc(Br)cc3c(=O)[nH]2)cc(C)c1OCCO [Example 89, 6-bromo-2-(4-(2-hydroxyethoxy)-3,5-dimethylphenyl)quinazolin-4(3H)-one] | Inactive
20 | CNC(=O)c1ccccc1C(=O)NCCOc1c(C)cc(-c2nc3cc(OC)cc(OC)c3c(=O)[nH]2)cc1C [Example 93, N1-(2-(4-(5,7-dimethoxy-4-oxo-3,4-dihydroquinazolin-2-yl)-2,6-dimethylphenoxy)ethyl)-N2-methylphthalamide] | Active
21 | COc1ccc(S(=O)(=O)NCCOc2c(C)cc(-c3nc4cc(OC)cc(OC)c4c(=O)[nH]3)cc2C)cc1 [Example 94, N-(2-(4-(5,7-dimethoxy-4-oxo-3,4-dihydroquinazolin-2-yl)-2,6-dimethylphenoxy)ethyl)-4-methoxybenzenesulfonamide] | Inactive
22 | COc1cc(OC)c2c(=O)[nH]c(-c3cc(C)c(OCCNS(=O)(=O)c4ccc(Cl)cc4)c(C)c3)nc2c1 [Example 95, 4-chloro-N-(2-(4-(5,7-dimethoxy-4-oxo-3,4-dihydroquinazolin-2-yl)-2,6-dimethylphenoxy)ethyl)benzenesulfonamide] | Inactive

The next lines start with the values.

Row | FRET activity (<50 uM) | SMILES
23 | Inactive | Cc1cc(-c2cc3ncccc3c(=O)[nH]2)cc(C)c1O [Example 5, 7-(4-hydroxy-3,5-dimethylphenyl)-1,6-naphthyridin-5(6H)-one]
24 | Active | COc1cc(OC)c2c(=O)[nH]c(-c3cc(C)c(OCCO)c(C)c3)cc2c1 [Example 6, 3-(4-(2-hydroxyethoxy)-3,5-dimethylphenyl)-6,8-dimethoxyisoquinolin-1(2H)-one]
25 | Active | COc1cc(OC)c2c(=O)[nH]c(-c3cc(C)c(OCCN(C)C)c(C)c3)cc2c1 [Example 7, 3-(4-(2-(dimethylamino)ethoxy)-3,5-dimethylphenyl)-6,8-dimethoxyisoquinolin-1(2H)-one]
26 | Inactive | COc1cc(O)nc2cc(-c3cc(C)c(O)c(C)c3)[nH]c(=O)c12 [Example 9, 2-hydroxy-7-(4-hydroxy-3,5-dimethylphenyl)-4-methoxy-1,6-naphthyridin-5(6H)-one]
27 | Active | COc1cc(OC)c2c(=O)[nH]c(-c3cc(C)c(O)c(C)c3)cc2n1 [Example 13, 7-(4-hydroxy-3,5-dimethylphenyl)-2,4-dimethoxy-1,6-naphthyridin-5(6H)-one]
28 | Active | COc1cc(OC)c2c(=O)[nH]c(-c3ccccn3)nc2c1 [Example 21, 5,7-dimethoxy-2-(pyridin-2-yl)quinazolin-4(3H)-one]
29 | Active | COc1cc(OC)c2c(=O)[nH]c(-c3cccnc3)nc2c1 [Example 22, 5,7-dimethoxy-2-(pyridin-3-yl)quinazolin-4(3H)-one]
30 | Inactive | Cc1cc(-c2nc3ccccc3c(=O)[nH]2)cc(C)c1OCCN1CCOCC1 [Example 29, 2-(3,5-dimethyl-4-(2-morpholinoethoxy)phenyl)quinazolin-4(3H)-one]
31 | Inactive | COc1ccc2nc(-c3cc(C)c(OCCO)c(C)c3)[nH]c(=O)c2c1 [Example 76, 2-(4-(2-hydroxyethoxy)-3,5-dimethylphenyl)-6-methoxyquinazolin-4(3H)-one]
32 | Active | COc1cccc2nc(-c3cc(C)c(OCCO)c(C)c3)[nH]c(=O)c12 [Example 78, 2-(4-(2-hydroxyethoxy)-3,5-dimethylphenyl)-5-methoxyquinazolin-4(3H)-one]
33 | Active | COc1cc(OC)c2c(=O)[nH]c(-c3cc(C)c(OC)c(C)c3)nc2c1 [Example 84, 5,7-dimethoxy-2-(4-methoxy-3,5-dimethylphenyl)quinazolin-4(3H)-one]
34 | Active | COc1cc(OC)c2c(=O)[nH]c(-c3cc(C)c(N)c(C)c3)nc2c1 [Example 85, 2-(4-amino-3,5-dimethylphenyl)-5,7-dimethoxyquinazolin-4(3H)-one]
35 | Inactive | Cc1cc(-c2nc3ccc(Br)cc3c(=O)[nH]2)cc(C)c1O [Example 88, 6-bromo-2-(4-hydroxy-3,5-dimethylphenyl)quinazolin-4(3H)-one]
36 | Inactive | COc1cc(OC)c2c(=O)[nH]c(-c3cc(C)c(OCc4ccccc4)c(C)c3)nc2c1 [Example 90, 2-(4-(benzyloxy)-3,5-dimethylphenyl)-5,7-dimethoxyquinazolin-4(3H)-one]
37 | Active | COc1cc(OC)c2c(=O)[nH]c(-c3ccc(OCCO)c(C)c3)nc2c1 [Example 91, 2-(4-(2-hydroxyethoxy)-3-methylphenyl)-5,7-dimethoxyquinazolin-4(3H)-one]
38 | Active | COc1cc(OC)c2c(=O)[nH]c(-c3ccc(O)c(C)c3)nc2c1 [Example 92, 2-(4-hydroxy-3-methylphenyl)-5,7-dimethoxyquinazolin-4(3H)-one]
